Assays:
Act1-IL-17RA interaction = molecular target: T1, Act1-IL-17RA interaction (Homo sapiens, UniProt Q96F46); experiment: Co-immunoprecipitation of Act1 and IL-17RA in transfected HeLa cells; type: cell-based, mouse Act1, human IL-17RA; conditions: peptides 200 μM, 24 hours
T1 construct: expressed in transfected cells; host or cells: HeLa
T1 sequence (Q96F46 33-866): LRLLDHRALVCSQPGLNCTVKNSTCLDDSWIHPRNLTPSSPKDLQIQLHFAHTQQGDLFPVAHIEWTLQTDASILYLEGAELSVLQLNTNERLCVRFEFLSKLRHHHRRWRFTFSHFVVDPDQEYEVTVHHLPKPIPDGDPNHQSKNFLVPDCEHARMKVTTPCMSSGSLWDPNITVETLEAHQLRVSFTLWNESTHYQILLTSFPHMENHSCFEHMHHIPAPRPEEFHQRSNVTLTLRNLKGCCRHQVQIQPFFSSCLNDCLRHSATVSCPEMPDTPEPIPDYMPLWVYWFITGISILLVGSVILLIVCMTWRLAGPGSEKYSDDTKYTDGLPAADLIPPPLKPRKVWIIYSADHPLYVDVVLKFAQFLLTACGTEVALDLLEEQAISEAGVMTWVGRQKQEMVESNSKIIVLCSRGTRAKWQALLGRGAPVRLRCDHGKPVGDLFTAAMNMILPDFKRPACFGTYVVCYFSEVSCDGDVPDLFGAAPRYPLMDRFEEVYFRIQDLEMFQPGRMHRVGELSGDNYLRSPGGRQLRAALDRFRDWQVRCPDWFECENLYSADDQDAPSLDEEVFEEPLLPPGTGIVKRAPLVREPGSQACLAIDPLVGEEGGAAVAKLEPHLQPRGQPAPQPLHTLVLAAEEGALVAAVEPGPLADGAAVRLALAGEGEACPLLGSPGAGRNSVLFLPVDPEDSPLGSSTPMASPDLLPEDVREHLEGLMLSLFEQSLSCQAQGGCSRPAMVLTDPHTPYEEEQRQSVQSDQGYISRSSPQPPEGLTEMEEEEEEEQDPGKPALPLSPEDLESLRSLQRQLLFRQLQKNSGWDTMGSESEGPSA
Protocol: (§1) FIG. 4 provides data showing that a cell-permeable CC′ loop decoy peptide disrupts the interaction between Act1 and IL-17RA and inhibits IL-17R and IL-25R signaling. FIG. 4A provides sequences of Antennapedia homeodomain (Antp) (SEQ ID NO: 11)and decoy peptides (SEQ ID NOS 23-25 and 17, respectively, in order of appearance) with the Antp sequence underlined. FIG. 4B provides flow cytometry results based on experiments in which MEFs expressing IL-17RB were incubated for 2 or 24 hours with the indicated FITC-tagged peptides (200 μM) and were then analyzed by flow cytometry. […] The percentages of FITC-positive cells in the treated samples are shown. […] FIG. 4D provides Western blot results of experiments in which MEFs expressing IL-17RB were incubated with the indicated peptides (200 μM) for 24 hours after which they were treated with IL-17 or IL-25 and then analyzed by Western blotting with the indicated antibodies. […] The abundances of Cxcl1 and Il13 mRNAs were then measured by real-time RT-PCR. […]
(§2) Decoy peptides are based on surface-exposed regions of the primary sequence of a protein to mimic a putative interaction interface. […] These decoy peptides were also tagged at their C-termini with fluorescein isothiocyanate (FITC) to enable their cell-penetrating efficiency to be evaluated by flow cytometric sanalysis. […]

[1] = tested on: IL-17-dependent signaling; experiment: IL-17-dependent signaling in MEFs by Western blotting (pIκB, pJNK, pERK, pp38 MAPK); type: cell-based, mouse
Protocol: as §1, §2

DRQIKIWFQNRRMKWKKLDEDEHGLHTKY [CC′ loop decoy peptide]
inhibition of the Act1-IL-17RA interaction (co-IP) (Act1-IL-17RA interaction): more efficiently inhibited
IL-17-dependent signaling (pIκB, pJNK, pERK, pp38 MAPK) ([1]; MEFs expressing IL-17RB, peptides 200 μM, 24 hours): partly attenuated
dose and time dependence of inhibition of IL-17-dependent signaling and gene expression ([1]; data not shown): dose-and time-dependent manner

From patent US9611295B2, “Treatment of IL-17 mediated disease by blocking SEFIR-SEFIR interactions” (THE CLEVELAND CLINIC FOUNDATION, priority 2011, dated 2017)
